Structures can show the parent of a compound that is named as a salt. Where two headings read alike, the source gives them in different places.

One experiment addresses T1, human ROCKα/ROCKII mix (Homo sapiens, UniProt O75116).
T1 construct: purchased Upstate Biotechnology 14-451
Put plainly: Biochemical assay for ROCK (fluorescence polarization, ROCK IMAP Kit). For orientation: Polarisation of emitted light reports the rotation of a fluorescent probe.

The next experiment concerns the target T2, PKC epsilon (Homo sapiens, UniProt Q02156).
T2 construct: purchased Invitrogen P2282
T2 sequence (Q02156 1-737): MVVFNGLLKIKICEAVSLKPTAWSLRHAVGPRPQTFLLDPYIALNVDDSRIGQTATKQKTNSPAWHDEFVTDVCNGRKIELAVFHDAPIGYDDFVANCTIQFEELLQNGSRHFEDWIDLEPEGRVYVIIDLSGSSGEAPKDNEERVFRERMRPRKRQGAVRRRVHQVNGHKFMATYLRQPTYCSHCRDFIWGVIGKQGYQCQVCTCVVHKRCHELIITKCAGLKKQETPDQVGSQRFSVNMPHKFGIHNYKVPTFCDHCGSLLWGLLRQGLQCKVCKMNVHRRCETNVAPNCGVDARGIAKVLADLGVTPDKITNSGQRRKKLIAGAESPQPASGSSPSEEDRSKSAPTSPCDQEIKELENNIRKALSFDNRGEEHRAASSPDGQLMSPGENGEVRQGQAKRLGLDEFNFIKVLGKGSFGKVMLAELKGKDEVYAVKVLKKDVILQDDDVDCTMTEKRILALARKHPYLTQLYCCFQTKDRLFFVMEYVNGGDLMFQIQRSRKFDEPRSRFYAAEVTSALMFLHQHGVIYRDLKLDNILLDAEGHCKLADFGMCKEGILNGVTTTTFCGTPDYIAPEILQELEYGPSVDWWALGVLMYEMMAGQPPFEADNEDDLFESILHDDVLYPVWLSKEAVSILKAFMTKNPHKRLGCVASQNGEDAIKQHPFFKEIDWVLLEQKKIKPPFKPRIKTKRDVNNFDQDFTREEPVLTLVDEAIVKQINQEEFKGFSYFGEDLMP
Put plainly: Biochemical assay for PKC epsilon (fluorescence polarization, Protein Kinase C Assay Kit, Red). To be noted: read-out: IC50 μM PKCε. Summed up: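 Read-out was fluorescence-polarization competition between phosphorylated substrate and a rhodamine PKC tracer for an anti-phosphoserine antibody, added with EDTA stop after an 80 min room-temperature kinase reaction with ATP and protein substrate (Mg2+/Ca2+ buffer). Enzyme (10 ng/ml final) was preincubated with compound for 30 min.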

Where [1] appears, read: Table 2, compounds of Formula XIII.
[2] abbreviates: compounds of Formula XIV, Table 3.

T1 sequence (O75116 11-552 limits assumed): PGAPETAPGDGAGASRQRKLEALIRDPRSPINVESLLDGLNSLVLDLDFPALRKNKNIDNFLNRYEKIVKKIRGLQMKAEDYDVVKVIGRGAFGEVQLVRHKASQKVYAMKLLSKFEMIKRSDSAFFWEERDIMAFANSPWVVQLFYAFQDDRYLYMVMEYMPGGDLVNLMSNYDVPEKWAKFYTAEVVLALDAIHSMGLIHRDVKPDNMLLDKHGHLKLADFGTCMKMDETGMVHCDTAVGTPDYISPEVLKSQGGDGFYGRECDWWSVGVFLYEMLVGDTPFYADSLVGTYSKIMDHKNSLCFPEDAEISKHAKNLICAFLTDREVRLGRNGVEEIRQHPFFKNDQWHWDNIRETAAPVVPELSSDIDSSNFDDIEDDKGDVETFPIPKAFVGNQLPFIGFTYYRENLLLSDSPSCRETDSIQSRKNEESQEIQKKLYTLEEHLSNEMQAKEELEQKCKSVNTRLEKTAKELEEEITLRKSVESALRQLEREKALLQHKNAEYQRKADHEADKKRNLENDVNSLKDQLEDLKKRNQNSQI

Turning to `NC(CNC(=O)C1CCc2ccccc2C1)c1ccc(C(=O)Nc2ccncc2)cc1` (stereo not shown) [Compound 164, 1,2,3,4-Tetrahydro-naphtalene-2-carboxylic acid {2-amino-2-[4-(pyridin-4-ylcarbamoyl)-phenyl]-ethyl}-amide], the IC50 against human ROCKα/ROCKII mix (setting [1]) and at PKC epsilon (setting [1]) was 0.5 to 5 µM each time.

Take `NC(c1ccc(C(=O)Nc2ccncc2)cc1)C1CCCN1C(=O)Cc1ccc(Cl)cc1Cl` (stereo not shown) [Compound 591, 4-(Amino-{1-[2-(2,4-dichloro-phenyl)-acetyl]-pyrrolidin-2-yl}-methyl)-N-pyridin-4-yl-benzamide]: the IC50 – broadly, the concentration needed to halve the response being measured – was in the range of 0.5 to 5 µM on human ROCKα/ROCKII mix and 5 to 50 µM on PKC epsilon.

Take `NC(CNC(=O)Nc1cccc2ccccc12)c1ccc(C(=O)Nc2ccncc2)cc1` (stereo not shown) [Compound 28, 4-[1-amino-2-(3-naphtalen-1-yl-ureido)-ethyl]-N-pyridin-4-yl-benzamide]: the values for the IC50 against human ROCKα/ROCKII mix and on PKC epsilon were 0.05 to 0.5 µM and 0.5 to 5 µM, respectively.

As to `COc1ccc(CCNC(=O)CC(N)c2ccc(C(=O)Nc3ccncc3)cc2)cc1` (stereo not shown) [Compound 291, 4-{1-Amino-2-[2-(4-methoxy-phenyl)-ethylcarbamoyl]-ethyl}-N-pyridin-4-yl-benzamide], the IC50 at human ROCKα/ROCKII mix (setting [2]) lay in the range of 0.05 to 0.5 µM; at PKC epsilon (setting [2]), 0.5 to 5 µM.

In the case of `NC(CNC(=O)c1ccc(=O)[nH]n1)c1ccc(C(=O)Nc2ccncc2)cc1` (stereo not shown) [Compound 109, 6-Oxo-1,6-dihydro-pyridazine-3-carboxylic acid {2-amino-2-[4-(pyridin-4-ylcarbamoyl)-phenyl]-ethyl}-amide], the IC50 fell in the range of 0.5 to 5 µM against human ROCKα/ROCKII mix (setting [1]) and 5 to 50 µM at PKC epsilon (setting [1]).

In the case of “4-[1-amino-2-(2-pyrazol-1-yl- ethylcarbamoyl)-ethyl]-N- pyridin-4-yl-benzamide [Compound 312]”, the results for the IC50 at human ROCKα/ROCKII mix (setting [2]) and on PKC epsilon (setting [2]) were 0.05 to 0.5 µM and 0.5 to 5 µM, respectively.

Consider `CN(C)CCNC(=O)CC(N)c1ccc(C(=O)Nc2ccncc2)cc1` (stereo not shown) [Compound 174, 4-[1-amino-2-(2-dimethylamino-ethylcarbamoyl)-ethyl]-N-pyridin-4-yl-benzamide], for which the IC50 against human ROCKα/ROCKII mix (setting [2]) was 0.05 to 0.5 µM; on PKC epsilon (setting [2]) it was 0.5 to 5 µM.

`NC(CC(=O)NCCc1ccccc1Cl)c1ccc(C(=O)Nc2ccncc2)cc1` (stereo not shown) [Compound 297, 4-{1-Amino-2-[2-(2-chloro-phenyl)-ethylcarbamoyl]-ethyl}-N-pyridin-4-yl-benzamide]: the IC50 against human ROCKα/ROCKII mix (setting [2]) is 0.05 to 0.5 µM; on PKC epsilon (setting [2]), 0.5 to 5 µM.

Regarding “4-{1-Amino-2-[methyl-(1- phenyl- cyclopropanecarbonyl)- amino]-ethyl}- N-pyridin-4-yl-benzamide [Compound 452]”, the IC50 was in the range of 0.5 to 5 µM at human ROCKα/ROCKII mix and 5 to 50 µM on PKC epsilon.

With `CC(Cc1c[nH]c2ccccc12)NC(=O)CC(N)c1ccc(C(=O)Nc2ccncc2)cc1` (stereo not shown) [Compound 315, 4-{1-Amino-2-[2-(1H-indol-3-yl)-1-methyl-ethylcarbamoyl]-ethyl}-N-pyridin-4-yl-benzamide], the IC50 on human ROCKα/ROCKII mix (setting [2]) was 0.05 to 0.5 µM; at PKC epsilon (setting [2]) it was 0.5 to 5 µM.

Take `NC(c1ccc(C(=O)Nc2ccncc2)cc1)C1CCCN1C(=O)C1(c2ccsc2)CC1` (stereo not shown) [Compound 551, 4-{Amino-[1-(1-thiophen-3-yl-cyclopropanecarbonyl)-pyrrolidin-2-yl]-methyl}-N-pyridin-4-yl-benzamide]: the figures for the 50% inhibitory concentration (IC50) on human ROCKα/ROCKII mix and on PKC epsilon were 0.5 to 5 µM and 5 to 50 µM, respectively.

With `NC(CC(=O)NCc1cc(Cl)ccc1Cl)c1ccc(C(=O)Nc2ccncc2)cc1` (stereo not shown) [Compound 251, 4-[1-Amino-2-(3,6-dichloro-benzylcarbamoyl)-ethyl]-N-pyridin-4-yl-benzamide], the IC50 at human ROCKα/ROCKII mix (setting [2]) lay within 0.05 to 0.5 µM; at PKC epsilon (setting [2]), 0.5 to 5 µM.

With `NC(CNC(=S)Nc1ccc(OC(F)(F)F)cc1)c1ccc(C(=O)Nc2ccncc2)cc1` (stereo not shown) [Compound 15, 4-{1-amino-2-[3-(4-trifluoromethoxy-phenyl)-thioureido]-ethyl}-N-pyridin-4-yl-benzamide], the figures for the IC50 against human ROCKα/ROCKII mix and on PKC epsilon were 0.5 to 5 µM and 5 to 50 µM, respectively.

Turning to `N[C@@H](CC(=O)NCc1ccc(F)cc1)c1ccc(C(=O)Nc2ccncc2)cc1` [Compound 402, 4-[(S)-1-Amino-2-(4-fluoro-benzylcarbamoyl)-ethyl]-N-pyridin-4-yl-benzamide dihydrochloric acid salt], the IC50 against human ROCKα/ROCKII mix and on PKC epsilon was 0.05 to 0.5 µM in each case.

In the case of `NC(CNC(=O)c1ccc2[nH]ccc2c1)c1ccc(C(=O)Nc2ccncc2)cc1` (stereo not shown) [Compound 132, 1H-Indole-5-carboxylic acid {2-amino-2-[4-(pyridin-4-ylcarbamoyl)-phenyl]-ethyl}-amide], the IC50 against human ROCKα/ROCKII mix (setting [1]) was 0.05 to 0.5 µM; at PKC epsilon (setting [1]), 0.5 to 5 µM.

For the molecule `COc1ccccc1CC(=O)NCC(N)c1ccc(C(=O)Nc2ccncc2)cc1` (stereo not shown) [Compound 138, 4-{1-amino-2-[2-(2-methoxy-phenyl)-acetylamino]-ethyl}-N-pyridin-4-yl-benzamide], the IC50 against human ROCKα/ROCKII mix (setting [1]) was in the range of 0.5 to 5 µM; on PKC epsilon (setting [1]), 5 to 50 µM.

For the molecule `N[C@H](CC(=O)N[C@H]1CCCc2ccccc21)c1ccc(C(=O)Nc2ccncc2)cc1` [Compound 372, 4-{(R)-1-Amino-2-[(S)-(1,2,3,4-tetrahydro-naphthalen-1-yl)carbamoyl]-ethyl}-N-pyridin-4-yl-benzamide dihydrochloric acid salt], the IC50 at human ROCKα/ROCKII mix fell in the range of 0.05 to 0.5 µM; on PKC epsilon, 0.5 to 5 µM.

With `CC(NC(=O)CC(N)c1ccc(C(=O)Nc2ccncc2)cc1)c1cccc2ccccc12` (stereo not shown) [Compound 230, 4-[1-Amino-2-(1-naphtalen-1-yl-ethylcarbamoyl)-ethyl]-N-pyridin-4-yl-benzamide], the values for the IC50 against human ROCKα/ROCKII mix (setting [2]) and on PKC epsilon (setting [2]) were 0.05 to 0.5 µM and 0.5 to 5 µM, respectively.

Regarding “4-{1-Amino-2-[(3-methyl- cyclohexanecarbonyl)-amino]-ethyl}- N-pyridin-4-yl-benzamide [Compound 45]”, the IC50 on human ROCKα/ROCKII mix (setting [1]) and at PKC epsilon (setting [1]) was 0.5 to 5 µM in each case.

As to `CC(C)(C)c1ccc(NC(=O)NCC(N)c2ccc(C(=O)Nc3ccncc3)cc2)cc1` (stereo not shown) [Compound 24, 4-{1-amino-2-[3-(4-tert-butyl-phenyl)-ureido]-ethyl}-N-pyridin-4-yl-benzamide], the IC50 at human ROCKα/ROCKII mix lay within 0.5 to 5 µM; on PKC epsilon it was 5 to 50 µM.

As for `NC(CNC(=O)C(c1ccccc1)C1CCCC1)c1ccc(C(=O)Nc2ccncc2)cc1` (stereo not shown) [Compound 136, 4-[1-Amino-2-(2-cyclopentyl-2-phenyl-acetylamino)-ethyl]-N-pyridin-4-yl-bennzamide], the concentration for half-maximal inhibition (IC50) lay within 0.5 to 5 µM on human ROCKα/ROCKII mix (setting [1]) and 5 to 50 µM on PKC epsilon (setting [1]).

In the case of `CCOc1ccccc1CCNC(=O)CC(N)c1ccc(C(=O)Nc2ccncc2)cc1` (stereo not shown) [Compound 288, 4-{1-Amino-2-[2-(2-ethoxy-phenyl)-ethylcarbamoyl]-ethyl}-N-pyridin-4-yl-benzamide], the concentration for half-maximal inhibition (IC50) on human ROCKα/ROCKII mix (setting [2]) was 0.05 to 0.5 µM; on PKC epsilon (setting [2]), 0.5 to 5 µM.

With `CCCCNC(=O)NCC(N)c1ccc(C(=O)Nc2ccncc2)cc1` (stereo not shown) [Compound 2, 4-[1-amino-2-(3-butyl-ureido)-ethyl]-N-pyridin-4-yl-benzamide], the half-maximal inhibitory concentration (IC50) at human ROCKα/ROCKII mix and on PKC epsilon was 0.5 to 5 µM throughout.

Regarding `NC(CC(=O)NCCc1cccc(Cl)c1)c1ccc(C(=O)Nc2ccncc2)cc1` (stereo not shown) [Compound 298, 4-{1-Amino-2-[2-(3-chloro-phenyl)-ethylcarbamoyl]-ethyl}-N-pyridin-4-yl-benzamide], the concentration for half-maximal inhibition (IC50) at human ROCKα/ROCKII mix (setting [2]) is 0.05 to 0.5 µM; on PKC epsilon (setting [2]) it was 0.5 to 5 µM.

Turning to `COc1cc(OC)cc(C(=O)NCC(N)c2ccc(C(=O)Nc3ccncc3)cc2)c1` (stereo not shown) [Compound 79, 4-[1-amino-2-(3,5-dimethoxy-benzoylamino)-ethyl]-N-pyridin-4-yl-benzamide], the IC50 against human ROCKα/ROCKII mix (setting [1]) and at PKC epsilon (setting [1]) was 0.5 to 5 µM throughout.

With `NC(CC(=O)NCc1ccccc1Cl)c1ccc(C(=O)Nc2ccncc2)cc1` (stereo not shown) [Compound 246, 4-[1-Amino-2-(2-chloro-benzylcarbamoyl)-ethyl]-N-pyridin-4-yl-benzamide], the IC50 was in the range of 0.05 to 0.5 µM on human ROCKα/ROCKII mix (setting [2]) and 0.5 to 5 µM at PKC epsilon (setting [2]).

With “4-{1-Amino-2-[(2- benzo[1,3]dioxol-5-yl- acetyl)-methyl-amino]-ethyl}- N-pyridin-4-yl-benzamide [Compound 432]”, the IC50 against human ROCKα/ROCKII mix fell in the range of 0.5 to 5 µM; at PKC epsilon it was 5 to 50 µM.

For `NC(CNC(=O)c1ccc(C(=O)c2ccccc2)cc1)c1ccc(C(=O)Nc2ccncc2)cc1` (stereo not shown) [Compound 100, 4-[1-amino-2-(4-benzoyl-benzoylamino)-ethyl]-N-pyridin-4-yl-benzamide], the IC50 against human ROCKα/ROCKII mix (setting [1]) fell in the range of 0.5 to 5 µM; on PKC epsilon (setting [1]) it was 5 to 50 µM.

As for `CCNC(=S)NCC(N)c1ccc(C(=O)Nc2ccncc2)cc1` (stereo not shown) [Compound 1, 4-[1-amino-2-(3-ethyl-thioureido)-ethyl]-N-pyridin-4-yl-benzamide], the IC50 against human ROCKα/ROCKII mix and on PKC epsilon was 0.5 to 5 µM each time.

Source of the values: patent US20100168102A9, “Amide Derivatives as Kinase Inhibitors” (Devgen NV, priority 2005, published 2010).
